Results from patent publication US7985761B2, “Diphenylurea derivatives and their use as chloride channel blockers or BKCa channel modulators” (Neurosearch A/S, priority 2006, dated 2011).

Assays:
Assay type in all cases: cell-based
[1] = target: T1, Volume Regulated Anion Channel (VRAC) (Homo sapiens, UniProt Q8IWT6); test: Volume Regulated Anion Channel (VRAC) effect, whole cell patch clamp in HEK293 cells; conditions: VRAC activated by swelling in hypotonic (75% tonicity) extracellular solution, read-out: KD value (time dependent block of VRAC current)
T1 construct: endogenous in cells; host or cells: HEK293
T1 sequence (Q8IWT6 1-810): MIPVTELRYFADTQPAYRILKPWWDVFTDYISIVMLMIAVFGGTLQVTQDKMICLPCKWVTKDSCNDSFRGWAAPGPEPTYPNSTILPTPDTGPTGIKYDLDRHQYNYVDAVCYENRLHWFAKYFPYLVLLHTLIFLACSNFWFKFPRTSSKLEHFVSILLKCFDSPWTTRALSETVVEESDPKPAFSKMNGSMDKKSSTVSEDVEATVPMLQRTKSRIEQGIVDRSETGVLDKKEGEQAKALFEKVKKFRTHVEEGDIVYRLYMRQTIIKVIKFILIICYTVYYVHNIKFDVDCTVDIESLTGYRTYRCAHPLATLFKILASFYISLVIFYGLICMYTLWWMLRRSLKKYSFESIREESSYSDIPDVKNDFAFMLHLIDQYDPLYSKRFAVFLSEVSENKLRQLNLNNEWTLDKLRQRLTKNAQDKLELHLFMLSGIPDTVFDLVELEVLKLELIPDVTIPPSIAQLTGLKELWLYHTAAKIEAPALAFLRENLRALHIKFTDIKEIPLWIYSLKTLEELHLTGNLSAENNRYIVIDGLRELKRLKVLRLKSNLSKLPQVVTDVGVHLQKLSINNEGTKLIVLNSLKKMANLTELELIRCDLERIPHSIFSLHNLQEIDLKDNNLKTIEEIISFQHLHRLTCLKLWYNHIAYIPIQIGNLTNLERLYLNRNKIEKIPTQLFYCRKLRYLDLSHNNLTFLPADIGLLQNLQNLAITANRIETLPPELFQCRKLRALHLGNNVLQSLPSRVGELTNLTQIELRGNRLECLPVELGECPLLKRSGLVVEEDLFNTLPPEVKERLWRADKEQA
Method: Volume Regulated Anion Channel (VRAC) Effect
The activity on the Volume Regulated Anion Channel (VRAC) was tested by the whole cell patch clamp technique using Human Embryonic Kidney cells (HEK293) as described in Helix et al, J Membr Biol. 2003 196(2):83-94, In short, VRAC was activated by swelling of the cell in hypotonic (75% tonicity) extracellular salt solution and the anion current elicited by voltage ramps was measured vs. time. After stabilization of the current the compound to be tested was added to the extracellular solution and the time dependent block was followed for calculation of the KD value.

human BK channels = target: T2, human BK channels (Homo sapiens, UniProt Q12791); test: Human BK channel screening, two-electrode voltage clamp in Xenopus oocytes; conditions: 0.3 μM test compound, Xenopus oocytes expressing human BK channels
T2 construct: expressed in transfected cells; host or cells: Xenopus oocytes
Method: Human BK Channel Screening
The influence of a compound on the membrane currents was determined electrophysiologically on Xenopus Oocytes capable of expressing human BK channels, and the current through the channels was recorded using the classical two-electrode voltage clamp technique.
The first compound of Example 4, N-(3,5-Difluoro-phenyl)-N′-[3-(5-oxo-4,5-dihydro-[1,2,4]oxadiazol-3-yl)-4′-trifluoromethyl-biphenyl-4-yl]urea, was subjected to this determination at a concentrations of 0.3 μM of test compound, and it caused an increase of BK current relative to the basal current of more than 200%.

[2] = tested on: human erythrocyte chloride channels; test: In vitro human erythrocyte chloride conductance; conditions: read-out: IC50 value - the concentration at which 50% of the chloride channels are blocked
Method: In Vitro Human Erythrocyte Chloride Conductance
The chloride conductance was measured according to the proceeding as described in the “Biology” paragraph of the specification of WO 00/24707. The parameter calculated from these studies is the IC50 value—the concentration at which 50% of the chloride channels are blocked.

T2 sequence (Q12791 whole entry): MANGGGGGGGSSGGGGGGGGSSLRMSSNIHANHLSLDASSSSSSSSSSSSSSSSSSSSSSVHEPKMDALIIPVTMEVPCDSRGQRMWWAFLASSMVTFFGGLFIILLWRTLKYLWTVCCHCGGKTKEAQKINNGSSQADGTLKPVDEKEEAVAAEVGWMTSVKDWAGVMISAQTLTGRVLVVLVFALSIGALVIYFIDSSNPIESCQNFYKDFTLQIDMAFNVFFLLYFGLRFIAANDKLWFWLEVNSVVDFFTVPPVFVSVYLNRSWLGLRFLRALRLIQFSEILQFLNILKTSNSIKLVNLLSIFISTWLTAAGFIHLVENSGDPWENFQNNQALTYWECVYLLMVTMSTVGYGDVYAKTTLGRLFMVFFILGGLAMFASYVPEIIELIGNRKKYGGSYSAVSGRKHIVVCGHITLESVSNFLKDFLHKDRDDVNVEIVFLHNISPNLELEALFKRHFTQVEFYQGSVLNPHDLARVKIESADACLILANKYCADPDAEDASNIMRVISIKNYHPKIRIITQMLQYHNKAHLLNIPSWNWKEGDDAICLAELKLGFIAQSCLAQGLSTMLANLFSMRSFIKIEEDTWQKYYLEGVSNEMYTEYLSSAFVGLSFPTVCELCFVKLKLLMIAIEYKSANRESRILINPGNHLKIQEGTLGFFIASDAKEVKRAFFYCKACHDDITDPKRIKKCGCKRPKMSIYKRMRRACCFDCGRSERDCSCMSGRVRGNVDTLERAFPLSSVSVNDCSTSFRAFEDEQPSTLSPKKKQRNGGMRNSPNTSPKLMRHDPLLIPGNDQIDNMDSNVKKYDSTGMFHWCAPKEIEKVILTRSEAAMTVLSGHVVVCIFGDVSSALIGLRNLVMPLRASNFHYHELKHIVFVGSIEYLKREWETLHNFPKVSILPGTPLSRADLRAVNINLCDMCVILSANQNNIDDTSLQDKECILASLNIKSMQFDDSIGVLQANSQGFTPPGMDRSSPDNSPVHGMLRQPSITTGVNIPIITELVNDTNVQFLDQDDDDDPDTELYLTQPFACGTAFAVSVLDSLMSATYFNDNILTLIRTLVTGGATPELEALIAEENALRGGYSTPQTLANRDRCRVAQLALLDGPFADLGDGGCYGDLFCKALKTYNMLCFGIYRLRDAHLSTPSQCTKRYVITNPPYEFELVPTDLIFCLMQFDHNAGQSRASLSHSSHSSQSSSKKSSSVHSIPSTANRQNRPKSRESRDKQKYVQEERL

- Kd [1]: 230 nM
- increase of BK current relative to the basal current (human BK channels): more than 200%
- IC50 [2]: 280 nM
SMILES: O=C(Nc1cc(F)cc(F)c1)Nc1ccc(-c2ccc(C(F)(F)F)cc2)cc1-c1noc(=O)[nH]1 [first compound of Example 4, N-(3,5-Difluoro-phenyl)-N′-[3-(5-oxo-4,5-dihydro-[1,2,4]oxadiazol-3-yl)-4′-trifluoromethyl-biphenyl-4-yl]urea]
